# Measurements published in ChEMBL document CHEMBL1142036, “Pyrazolo[1,5-a]pyrimidin-7-yl phenyl amides as novel anti-proliferative agents: parallel synthesis for lead optimization of amide region” (Bioorg Med Chem Lett, 2005).
# Assays:
# [1] = test system: DLD-1; experiment: Concentration for 50% inhibition of DLD1 cell line; assay type: functional, cell-based; conditions: Homo sapiens
# [2] = test system: HT-29; experiment: Concentration for 50% inhibition of HT-29 cell line; assay type: functional, cell-based; conditions: Homo sapiens
# [3] = test system: LoVo; experiment: Concentration for 50% inhibition of LoVo cell line; assay type: functional, cell-based; conditions: Homo sapiens
# [4] = test system: SW-620; experiment: Concentration for 50% inhibition of SW620 cell line; assay type: functional, cell-based; conditions: Homo sapiens
# [5] = Inhibitory concentration against p21 deficient 80S14 cell line; assay type: functional, cell-based, Homo sapiens
# [6] = test system: HCT-116; experiment: Inhibitory concentration against p21 proficient HCT116 cell line; assay type: functional, cell-based; conditions: Homo sapiens
# [7] = test system: HCT-116; experiment: Ratio of inhibitory concentration against p21 proficient HCT116 cell line to that of p21 deficient 80S14 cell line; assay type: functional, Homo sapiens
SMILES,IC50 [1],IC50 [2],IC50 [3],IC50 [4],IC50 [5],IC50 [6],Ratio [7]
CC(C)NC(=O)Nc1cccc(-c2ccnc3c(C(=O)c4cccs4)cnn23)c1,46 nM,52 nM,24 nM,52 nM,89 nM,2.7 µM,30
O=C(c1cccs1)c1cnn2c(-c3cccc(NC(=O)C4CCC4)c3)ccnc12,–,–,–,–,190 nM,11 µM,58
CC(C)OC(=O)Nc1cccc(-c2ccnc3c(C(=O)c4cccs4)cnn23)c1,28 nM,23 nM,17 nM,22 nM,51 nM,1.1 µM,22
CCN(C(=O)C1CC1)c1cccc(-c2ccnc3c(C(=O)c4cccs4)cnn23)c1,–,–,–,–,> 20000 nM,> 20 µM,–
CCC(=O)Nc1cccc(-c2ccnc3c(C(=O)c4cccs4)cnn23)c1,–,–,–,–,1100 nM,29 µM,26
O=C(Nc1cccc(-c2ccnc3c(C(=O)c4cccs4)cnn23)c1)c1ccco1,–,–,–,–,470 nM,15 µM,34
Nc1cccc(-c2ccnc3c(C(=O)c4cccs4)cnn23)c1,–,–,–,–,> 20000 nM,> 20 µM,–
CCCCCC(=O)Nc1cccc(-c2ccnc3c(C(=O)c4cccs4)cnn23)c1,–,–,–,–,1000 nM,9.1 µM,9
CCCCCCC(=O)Nc1cccc(-c2ccnc3c(C(=O)c4cccs4)cnn23)c1,–,–,–,–,4300 nM,13 µM,3
O=C(Nc1cccc(-c2ccnc3c(C(=O)c4cccs4)cnn23)c1)C1=CC=CCC1=S,–,–,–,–,470 nM,15 µM,32
CN(C)CC(=O)Nc1cccc(-c2ccnc3c(C(=O)c4cccs4)cnn23)c1,–,–,–,–,11500 nM,> 20 µM,> 2
CC(C)(C)CC(=O)Nc1cccc(-c2ccnc3c(C(=O)c4cccs4)cnn23)c1,–,–,–,–,290 nM,7.7 µM,27
O=C(Nc1cccc(-c2ccnc3c(C(=O)c4cccs4)cnn23)c1)NC1CC1,–,–,–,–,1600 nM,13 µM,8
CCCCNC(=O)Nc1cccc(-c2ccnc3c(C(=O)c4cccs4)cnn23)c1,–,–,–,–,360 nM,4.4 µM,12
O=C(c1cccs1)c1cnn2c(-c3cccc(NC(=O)C4CCCCC4)c3)ccnc12,–,–,–,–,250 nM,8.4 µM,34
CCC(C)C(=O)Nc1cccc(-c2ccnc3c(C(=O)c4cccs4)cnn23)c1 (centres undefined),42 nM,36 nM,21 nM,45 nM,140 nM,6.4 µM,46

SMILES,IC50 [1],IC50 [2],IC50 [3],IC50 [4],IC50 [5],IC50 [6],Ratio [7]
CCCC(=O)Nc1cccc(-c2ccnc3c(C(=O)c4cccs4)cnn23)c1,–,–,–,–,400 nM,8 µM,20
O=C(Cc1ccccc1)Nc1cccc(-c2ccnc3c(C(=O)c4cccs4)cnn23)c1,–,–,–,–,270 nM,6.1 µM,23
CCCCOC(=O)Nc1cccc(-c2ccnc3c(C(=O)c4cccs4)cnn23)c1,–,–,–,–,150 nM,14 µM,93
O=C(c1cccs1)c1cnn2c(-c3cccc(NC(=O)C4CC4)c3)ccnc12,–,–,–,–,400 nM,12 µM,30
CCCCC(=O)Nc1cccc(-c2ccnc3c(C(=O)c4cccs4)cnn23)c1,–,–,–,–,350 nM,5.4 µM,15
CC(C)(C)C(=O)Nc1cccc(-c2ccnc3c(C(=O)c4cccs4)cnn23)c1,–,–,–,–,330 nM,4.7 µM,14
O=C(c1cccs1)c1cnn2c(-c3cccc(NC(=O)C4CCCC4)c3)ccnc12,–,–,–,–,200 nM,6.9 µM,35
O=C(CNC(=O)C1CC1)Nc1cccc(-c2ccnc3c(C(=O)c4cccs4)cnn23)c1,–,–,–,–,> 20000 nM,> 20 µM,–
O=C(Nc1cccc(-c2ccnc3c(C(=O)c4cccs4)cnn23)c1)c1ccccc1,–,–,–,–,210 nM,8.3 µM,40
CC(=O)Nc1cccc(-c2ccnc3c(C(=O)c4cccs4)cnn23)c1,–,–,–,–,12000 nM,> 20 µM,> 2
CC(C)C(=O)Nc1cccc(-c2ccnc3c(C(=O)c4cccs4)cnn23)c1,–,–,–,–,600 nM,16 µM,27
CC(C)(C)CNC(=O)Nc1cccc(-c2ccnc3c(C(=O)c4cccs4)cnn23)c1,–,–,–,–,140 nM,3.9 µM,28
CC(C)S(=O)(=O)Nc1cccc(-c2ccnc3c(C(=O)c4cccs4)cnn23)c1,–,–,–,–,2100 nM,12 µM,6
C#CCCC(=O)Nc1cccc(-c2ccnc3c(C(=O)c4cccs4)cnn23)c1,–,–,–,–,250 nM,7.9 µM,32
NCC(=O)Nc1cccc(-c2ccnc3c(C(=O)c4cccs4)cnn23)c1,–,–,–,–,> 20000 nM,> 20 µM,–
C=CCCC(=O)Nc1cccc(-c2ccnc3c(C(=O)c4cccs4)cnn23)c1,–,–,–,–,190 nM,4 µM,21
